# Experimental data published in patent publication US10059703B2, “3-alkyl-5-fluoro-4-substituted-imino-3,4-dihydropyrimidin-2(1H)-one derivatives as fungicides” (Adama Makhteshim Ltd., priority 2012, dated 2018).
# Where two headings read alike, the source gives them in different places.
# How the values were obtained:
# Septoria tritici = assay: Fungicidal activity: leaf blotch of wheat, one-day protectant and three-day curative tests on wheat plants; assay type: in vivo; details: Zymoseptoria tritici
# Description: Example 16: Evaluation of Fungicidal Activity: Leaf Blotch of Wheat (Mycosphaerella graminicola; anamorph: Septoria tritici; Bayer code SEPTTR)
# Wheat plants (variety Yuma) were grown from seed in a greenhouse in 50% mineral soil/50% soil-less Metro mix until the first leaf was fully emerged, with 7-10 seedlings per pot. These plants were inoculated with an aqueous spore suspension of Septoria tritici either prior to or after fungicide treatments. After inoculation the plants were kept in 100% relative humidity (one day in a dark dew chamber followed by two to three days in a lighted dew chamber) to permit spores to germinate and infect the leaf. The plants were then transferred to a greenhouse for disease to develop.
# (§1) The following tables present the activity of typical compounds of the present disclosure when evaluated in these experiments. The effectiveness of the test compounds in controlling disease was determined by assessing the severity of disease on treated plants, then converting the severity to percent control based on the level of disease on untreated, inoculated plants.
# as §1, with “table presents” for “tables present”
# [1] = 24 h, One-Day Protectant (1 DP), 100 ppm, wheat plants (variety Yuma), read-out: SEPTTR 100 PPM 1 DP (% Disease Control rating)
# [2] = 72 h, Three-Day Curative (3 DC), 100 ppm, wheat plants (variety Yuma), read-out: SEPTTR 100 PPM 3 DC (% Disease Control rating)
# [3] = 24 h, read-out: SEPTTR 100 PPM 1 DP (% Disease Control rating)
# [4] = 72 h, read-out: SEPTTR 100 PPM 3 DC (% Disease Control rating)
melting point [°C],SMILES,pest or weed control at 100 ppm (Septoria tritici; [1]) [%],pest or weed control at 100 ppm (Septoria tritici; [2]) [%],pest or weed control at 100 ppm (Septoria tritici; [3]) [%],pest or weed control at 100 ppm (Septoria tritici; [4]) [%]
185 to 186,COC(=O)/N=c1\c(F)cn(S(=O)(=O)c2ccccc2)c(=O)n1C [Compound F45],0 to 25,0 to 25,,
145 to 146,COC(=O)/N=c1\c(F)cn(S(=O)(=O)c2ccc(C)cc2)c(=O)n1C [Compound F46],0 to 25,0 to 25,,
125 to 126,CCc1ccc(S(=O)(=O)n2cc(F)/c(=N\C(=O)OC)n(C)c2=O)cc1 [Compound F47],0 to 25,0 to 25,,
116 to 117,COC(=O)/N=c1\c(F)cn(S(=O)(=O)c2ccc(C(C)C)cc2)c(=O)n1C [Compound F48],0 to 25,0 to 25,,
200 to 201,COC(=O)/N=c1\c(F)cn(S(=O)(=O)c2cccc(C)c2)c(=O)n1C [Compound F49],0 to 25,0 to 25,,
148 to 149,COC(=O)/N=c1\c(F)cn(S(=O)(=O)c2cc(Cl)sc2Cl)c(=O)n1C [Compound F51],0 to 25,0 to 25,,
189 to 192,Cn1c(=O)n(S(=O)(=O)c2ccccc2)cc(F)/c1=N\Cc1ccccc1F [Compound F52],0 to 25,0 to 25,,

# Further lines, the compound ahead of its results:
SMILES,melting point [°C],pest or weed control at 100 ppm (Septoria tritici; [1]) [%],pest or weed control at 100 ppm (Septoria tritici; [2]) [%],pest or weed control at 100 ppm (Septoria tritici; [3]) [%],pest or weed control at 100 ppm (Septoria tritici; [4]) [%]
"Cc1ccc(S(=O)(=O)n2cc(F)/c(=N\C(=O)c3ccccc3)n(C(=O)c3ccccc3)c2=O)cc1 [Compound F37, (E)-N-(3-benzoyl-5-fluoro-2-oxo-1-tosyl-2,3-dihydropyrimidin-4(1H)-ylidene)benzamide]",180.8 to 182.2,0 to 25,0 to 25,,
Cn1c(=O)n(S(=O)(=O)c2ccccc2)cc(F)/c1=N\C(=O)Oc1ccccc1 [Compound F38],170 to 171,,,76 to 100,76 to 100
Cc1ccc(S(=O)(=O)n2cc(F)/c(=N\C(=O)Oc3ccccc3)n(C)c2=O)cc1 [Compound F39],200 to 202,,,26 to 50,26 to 50
CCc1ccc(S(=O)(=O)n2cc(F)/c(=N\C(=O)Oc3ccccc3)n(C)c2=O)cc1 [Compound F40],188 to 190,,,0 to 25,0 to 25
CC(C)c1ccc(S(=O)(=O)n2cc(F)/c(=N\C(=O)Oc3ccccc3)n(C)c2=O)cc1 [Compound F41],180 to 181,,,0 to 25,0 to 25
Cc1cccc(S(=O)(=O)n2cc(F)/c(=N\C(=O)Oc3ccccc3)n(C)c2=O)c1 [Compound F42],187 to 188,,,76 to 100,0 to 25
Cc1cc(S(=O)(=O)n2cc(F)/c(=N\C(=O)Oc3ccccc3)n(C)c2=O)c(C)cc1Cl [Compound F43],209 to 211,,,0 to 25,0 to 25
Cn1c(=O)n(S(=O)(=O)c2cc(Cl)sc2Cl)cc(F)/c1=N\C(=O)Oc1ccccc1 [Compound F44],158 to 159,,,76 to 100,76 to 100
COC(=O)/N=c1\c(F)cn(S(=O)(=O)c2cc(C)c(Cl)cc2C)c(=O)n1C [Compound F50],178 to 179,0 to 25,0 to 25,,
"COc1ccc(S(=O)(=O)n2cc(F)/c(=N\Cc3ccccc3F)n(C)c2=O)cc1 [Compound F53, 5-fluoro-4-((2-fluorobenzyl)imino)-1-((4-methoxyphenyl)sulfonyl)-3-methyl-3,4-dihydropyrimidin-2(1H)-one]",188 to 191,0 to 25,0 to 25,,
Cc1ccc(S(=O)(=O)n2cc(F)/c(=N\Cc3ccccc3F)n(C)c2=O)cc1 [Compound F54],184 to 187,0 to 25,0 to 25,,
CCc1ccc(S(=O)(=O)n2cc(F)/c(=N\Cc3ccccc3F)n(C)c2=O)cc1 [Compound F55],140 to 141,0 to 25,0 to 25,,
CC(C)c1ccc(S(=O)(=O)n2cc(F)/c(=N\Cc3ccccc3F)n(C)c2=O)cc1 [Compound F56],140 to 143,0 to 25,0 to 25,,
Cc1cccc(S(=O)(=O)n2cc(F)/c(=N\Cc3ccccc3F)n(C)c2=O)c1 [Compound F57],177 to 180,0 to 25,0 to 25,,
Cc1cc(S(=O)(=O)n2cc(F)/c(=N\Cc3ccccc3F)n(C)c2=O)c(C)cc1Cl [Compound F58],208 to 210,0 to 25,0 to 25,,
Cn1c(=O)n(S(=O)(=O)c2cc(Cl)sc2Cl)cc(F)/c1=N\Cc1ccccc1F [Compound F59],108 to 111,0 to 25,0 to 25,,
